Measured values reported in patent US8093297B2 (Mutual Pharmaceutical Company, Inc., priority 2009, dated 2012).
Read-outs that look alike come from different tables or passages of the source.

Legend:
[1] = colchicine given concomitantly with the named drug; cited from earlier work
[2] = colchicine in plasma, single 0.6 mg dose alone (Day 1) or with cyclosporine 100 mg (Day 15), N=23
Method: (§1) This study was an open-label, non-randomized, single-center, one-sequence, two-period drug interaction study conducted in healthy male and female volunteers. Twenty-four (24) non-smoking, non-obese adult volunteers were enrolled. All subjects were dosed and studied as a single cohort, with each subject receiving the same treatment in a non-randomized fashion.
(§2) Pharmacokinetic parameters referred to herein describe the in vivo characteristics of drug (or a metabolite or a surrogate marker for the drug) over time. These include plasma concentration (C), as well as Cmax, Cn, C24, Tmax, and AUC. “Cmax” is the measured plasma concentration of the active agent at the point of maximum, or peak, concentration. “Cmin” is the measured plasma concentration of the active agent at the point of minimum concentration. “Cn” is the measured plasma concentration of the active agent at about n hours after administration. […] The term “Tmax” refers to the time from drug administration until Cmax is reached. “AUC” is the area under the curve of a graph of the measured plasma concentration of an active agent vs. time, measured from one time point to another time point. […] Time t can be the last time point with measurable plasma concentration for an individual formulation. The AUC0-∞, AUC∞ or AUC0-inf is the calculated area under the curve of plasma concentration versus time from time 0 to time infinity.

[3] = colchicine in plasma, N=23
[4] = Pharmacokinetic study in healthy adults of single vs. multiple oral doses of colchicine tablets (Example 1); conditions: for metabolite plasma concentration: after oral colchicine 0.6 mg single and multiple doses, LOQ 0.2 ng/mL, 13 subjects
Method: Subjects received a light breakfast served 60 minutes following dose administration in the morning and the evening dose was administered 90 minutes after an evening meal on Days 15 through 24 only. […] Study periods were separated by a 14-day washout. Following the single dose and the last dose of the multiple dose regimen (beginning on the mornings of Day 1 and Day 25, respectively), blood samples were collected (6 mL each) from each subject within 1 hour prior to dosing and after dose administration at study hours 0.5, 1, 1.5, 2, 3, 4, 6, 8, 10, 12, and 24 (while confined) and 36, 48, 72, and 96 (on an outpatient basis).
In tables, the parameter CL/F denotes the apparent total body clearance after administration, calculated as Total Dose/Total AUC0-tau; and Vd/F denotes the apparent total volume of distribution after administration, calculated as Total Dose/(Total AUC∞×Kel).
These include plasma concentration (C), as well as Cmax, Cn, C24, Tmax, and AUC. “Cmax” is the measured plasma concentration of the active agent at the point of maximum, or peak, concentration. “Cmin” is the measured plasma concentration of the active agent at the point of minimum concentration. “Cn” is the measured plasma concentration of the active agent at about n hours after administration. […] The term “Tmax” refers to the time from drug administration until Cmax is reached. “AUC” is the area under the curve of a graph of the measured plasma concentration of an active agent vs. time, measured from one time point to another time point. […] Time t can be the last time point with measurable plasma concentration for an individual formulation. The AUC0-∞, AUC∞ or AUC0-inf is the calculated area under the curve of plasma concentration versus time from time 0 to time infinity.

[5] = colchicine in plasma; single 0.6 mg dose alone (Day 1) or with steady-state diltiazem (Day 21); N=20; arithmetic mean
Method: as §1, §2

[6] = for AUC0-t, geometric mean / AUC∞, geometric mean / Cmax, geometric mean: single 0.6 mg dose alone or with steady-state ritonavir 100 mg b.i.d., ln-transformed data
Method: An open-label, non-randomized, single-center, one-sequence, two-period drug interaction study was conducted in healthy male and female volunteers; there will be a 14-day washout between the two periods. Twenty-four (24) non-smoking, non-obese adult volunteers were enrolled. All subjects were dosed and studied as a single cohort, with each subject receiving the same treatment in a non-randomized fashion.
On the evening of Day 18, study participants remained at the clinic for their final study confinement period.
as §2

[7] = not given; remark: listed apart in the source
FMF patients = conditions: reported; cited from earlier work
clinical [8] = conditions: both, human, plasma, 0.6 mg
Method: as §1, §2

clinical [9] = conditions: both, human, plasma, oral, 0.6 mg, geometric mean, colchicine in plasma, single 0.6 mg dose alone or with steady-state ketoconazole 200 mg b.i.d., ln-transformed data
From the text: This study was an open-label, non-randomized, single-center, one-sequence, two-period drug interaction study conducted in healthy male and female volunteers; there will be a 14-day washout between the two periods. Twenty-four (24) non-smoking, non-obese adult volunteers were enrolled.
as §2

clinical [10] = conditions: both, human, plasma, oral, 0.6 mg, colchicine in plasma
Method: This study was an open-label, non-randomized, single-center, one-sequence, two-period drug interaction study conducted in healthy male and female volunteers; there was a 14-day washout between the two periods. Twenty-four (24) non-smoking, non-obese adult volunteers were enrolled. All subjects were dosed and studied as a single cohort, with each subject receiving the same treatment in a non-randomized fashion.
Azithromycin was administered for 5 consecutive days (2×250 mg once daily [Day 15 only] and then 1×250 mg once daily Days 16-19) beginning on the morning of Day 15, with the last 250 mg azithromycin dose administered on the morning on Day 19.
Azithromycin plasma concentrations were not measured.
as §2

clinical [11] = conditions: both, human, plasma, 0.6 mg, colchicine in plasma, single 0.6 mg dose alone (Day 1) or with steady-state diltiazem (Day 21), N=20, arithmetic mean
Method: as §1, §2

[12] = Clinical drug-drug interaction study of colchicine and verapamil (Example 8); conditions: for AUC0-inf: both, human, in vivo, 0.6 mg
Method: as §1, §2

[13] = colchicine in plasma, single 0.6 mg dose alone or with steady-state ketoconazole 200 mg b.i.d., ln-transformed data
[14] = single 0.6 mg dose alone (Day 1) or with steady-state clarithromycin (Day 29), arithmetic mean
[15] = co-administration with ritonavir 100 mg b.i.d. x 5 days
[16] = colchicine in plasma, single 0.6 mg dose alone (Day 1) or with steady-state ritonavir (Day 19), N=18, arithmetic mean
[17] = following ritonavir 100 mg b.i.d. x 5 days vs colchicine alone
[18] = single oral 0.6 mg colchicine following ketoconazole 200 mg b.i.d. x 5 days vs alone
[19] = co-administration with azithromycin
[20] = colchicine in plasma, single 0.6 mg dose alone (Day 1) or with steady-state azithromycin (Day 19), N=21, arithmetic mean
[21] = colchicine in plasma, single 0.6 mg dose alone or with steady-state azithromycin
[22] = colchicine, single 0.6 mg dose alone or with steady-state azithromycin, N=21, arithmetic mean
[23] = following azithromycin 500 mg then 250 mg x 4 days vs colchicine alone
[24] = colchicine in plasma, single 0.6 mg dose alone (Day 1) or with steady-state verapamil (Day 19), N=24, arithmetic mean
[25] = colchicine in plasma, single 0.6 mg dose alone or with steady-state verapamil HCl ER 240 mg once daily
[26] = multiple (b.i.d. x 10 days) oral doses colchicine 0.6 mg, after last dose Day 25, healthy adults N=13
[27] = single oral dose colchicine 0.6 mg, fasted, healthy adults N=13
[28] = colchicine in plasma, listed as Colchicine + Ritonovir

In the case of `CC[C@H]1OC(=O)[C@H](C)[C@@H](O[C@H]2C[C@@](C)(OC)[C@@H](O)[C@H](C)O2)[C@H](C)[C@@H](O[C@@H]2O[C@H](C)C[C@H](N(C)C)[C@H]2O)[C@](C)(OC)C[C@@H](C)C(=O)[C@H](C)[C@@H](O)[C@]1(C)O` [Clarithromycin], the “Noted or Anticipated Outcome: toxicity reported with concomitant colchicine” value [1] is listed as “fatal colchicine toxicity”.
For `COc1cc2c(c(OC)c1OC)-c1ccc(OC)c(=O)cc1[C@@H](NC(C)=O)CC2` [Colchicine + Cyclosporine], the “Tmax (hr)*” value [2] was 1.13 h, the AUC0-inf ([2]; arithmetic mean) was 47.31 ng·h/mL and the AUC0-t ([2]; arithmetic mean) was 39.83 ng·h/mL. The Cmax ([2]; arithmetic mean) was 8.82 ng/mL.
In the case of `COc1cc2c(c(OC)c1OC)-c1ccc(OC)c(=O)cc1[C@@H](NC(C)=O)CC2` [Colchicine + Ketoconazole], the “AUC0-t, geometric mean” value [13] is reported as 33.2238 ng·h/mL, the “AUC∞, geometric mean” value [13] is reported as 42.143 ng·h/mL and the “Cmax, geometric mean” value [13] is reported as 5.0785 ng/mL. For the same molecule, the “Tmax (hr)*” value (colchicine in plasma, single 0.6 mg dose alone or with steady-state ketoconazole, N=23, *Median (Range) for Tmax) was 1.02 h.
With `COc1cc2c(c(OC)c1OC)-c1ccc(OC)c(=O)cc1[C@@H](NC(C)=O)CC2` [Colchicine + Clarithromycin] the AUC0-inf [3, 14] was 52.62 ng·h/mL, the AUC0-t [3, 14] was 41.95 ng·h/mL and the Cmax [3, 14] was 8.44 ng/mL. For the same molecule, the “Tmax (hr)*” value ([3]; single 0.6 mg dose alone or with steady-state clarithromycin, range printed beside) was 1.00 h.
For `COc1c(O)cc2c(c1OC)-c1ccc(OC)c(=O)cc1[C@@H](NC(C)=O)CC2` [3-DMC, 3-O-demethylcolchciine], the metabolite plasma concentration [4] was “only one sample from 1 subject (of 13 subjects) had a detectable”.
For `COc1cc2c(c(OC)c1OC)-c1ccc(OC)c(=O)cc1[C@@H](NC(C)=O)CC2` [Colchicine + Diltiazem], the AUC0-t [5] was 17.73 ng·h/mL, the “AUC0-∞” value [5] was 22.49 ng·h/mL and the Cmax [5] was 2.80 ng/mL.
In the case of `COc1cc2c(c(OC)c1OC)-c1ccc(OC)c(=O)cc1[C@@H](NC(C)=O)CC2` [Colchicine, (−)-N-[(7S,12aS)-1,2,3,10-tetramethoxy-9-oxo-5,6,7,9-tetrahydrobenzo[a]heptalen-7-yl]-acetamide], the AUC0-inf [3, 14] is reported as 15.53 ng·h/mL, the AUC0-t [3, 14] is reported as 12.37 ng·h/mL and the “decrease in total apparent oral clearance” value (“decrease” below) [6, 15] is reported as 70%. For the same molecule, the “effect on Tmax” value [6, 15] was “not affected”, the “AUC0-∞” value [6, 16] was 10.41 ng·h/mL and the “AUC0-t, geometric mean” value ([6]; colchicine in plasma) was 7.64271 ng·h/mL. The “AUC∞, geometric mean” value ([6]; colchicine in plasma) was 9.55174 ng·h/mL, the “Cmax, geometric mean” value ([6]; colchicine in plasma) was 1.79837 ng/mL and the “increase in exposure to a single 0.6-mg colchicine” value [6, 17] was “approximately 245%”. The “increase in mean peak colchicine concentration” value [6, 17] was “approximately 170%”, the “decrease” value (co-administration with ketoconazole 200 mg b.i.d. x 5 days) was 70% and the “AUC∞, geometric mean” value [13] was 13.18592 ng·h/mL. For the same molecule, the “increase in AUC0-t of colchicine” value [18] was 190%, the “increase in Cmax of colchicine” value [18] was 90% and the “decrease” value [7, 19] was “approximately 30%”. For the same molecule, the “effect on Tmax” value [7, 19] was “not affected”, the AUC0-t [7, 20] was 11.98 ng·h/mL and the “AUC0-∞” value [7, 20] was 14.13 ng·h/mL. The “AUC∞, geometric mean” value [7, 21] was 12.9318 ng·h/mL, the CL/F [7, 22] was 50.24 L/h and the “increase in exposure to colchicine” value ([7]; concomitant administration of azithromycin (description)) was “approximately 46%”. For the same molecule, the “increase in exposure to colchicine, AUC0-t” value [7, 23] was “approximately 46%”, the “increase in exposure to colchicine, AUC0-∞” value [7, 23] was “approximately 40%” and the “increase in mean peak colchicine concentration” value [7, 23] was “approximately 12%”. The Cmax [5] was 2.17 ng/mL, the “FMF patients who do not show a beneficial response to colchicine administration” value (FMF patients) was 5-10% and the AUC0-inf (clinical [8]) was 15 ng·h/mL. The AUC0-t (clinical [8]) was 12.6 ng·h/mL, the Cmax (clinical [8]) was 2.72 ng/mL and the Tmax (clinical [8]) was 1.15 h. The Cmax (clinical [9]) was 2.6 ng/mL, the Cmax (clinical [10]; single 0.6 mg dose alone (Day 1) or with steady-state azithromycin (Day 19), N=21, arithmetic mean) was 2.74 ng/mL and the Cmax (clinical [10]; geometric mean, single 0.6 mg dose alone or with steady-state azithromycin) was 2.54 ng/mL. The AUC0-t (clinical [11]) was 10 ng·h/mL, the AUC0-inf ([12]; AUC0-∞, colchicine in plasma, single 0.6 mg dose alone (Day 1) or with steady-state verapamil (Day 19), N=24, arithmetic mean) was 15.4 ng·h/mL and the AUC0-inf ([12]; AUC∞, geometric mean, colchicine in plasma, single 0.6 mg dose alone or with steady-state verapamil HCl ER 240 mg once daily) was 14.4 ng·h/mL. For the same molecule, the Cmax [12, 24] was 2.97 ng/mL, the “AUC0-t, geometric mean” value [12, 25] was 12.2564 ng·h/mL and the CL/F ([12]; colchicine, single 0.6 mg dose alone or with steady-state verapamil, N=24, arithmetic mean) was 43.93 L/h. The “attainment of steady state (trough plasma concentrations)” value ([4]; 0.6 mg b.i.d.) was “by approximately the eighth day of dosing for most subjects”, the elimination half-life ([4]; calculated following a single oral dose, stated not an accurate estimate) was “approximately 5 hours” and the “Cave, MEAN” value [4, 26] was 1.69722 ng/mL. The “Cave, MEDIAN” value [4, 26] was 1.70192 ng/mL, the “Cmin, MEDIAN” value [4, 26] was 0.9035 ng/mL and the “Ke1, MEAN” value [4, 26] was 0.0267 h⁻¹. For the same molecule, the “Ke1, MEDIAN” value [4, 26] was 0.0261 h⁻¹, the “quantifiability of plasma concentrations after a single dose” value ([4]; single 0.6 mg oral dose, healthy adults) was “no longer quantifiable 24 hours post-dose in all but 1 subject” and the secondary colchicine peak ([4]; single dose or multiple dosing, individual subject data) was “no subject experienced a secondary colchicine peak”. For the same molecule, the “Ke1, MEAN” value [4, 27] was 0.1829 h⁻¹, the “Ke1, MEDIAN” value [4, 27] was 0.1992 h⁻¹ and the “Cmin prior to the morning dose higher than Cmin prior to the evening dose” value ([4]; steady state, Day 23 and Day 24) was “approximately 12%”.
With `COc1cc2c(c(OC)c1OC)-c1ccc(OC)c(=O)cc1[C@@H](NC(C)=O)CC2` [Colchicine + Ritonavir] the AUC0-t [6, 16] was 29.05 ng·h/mL, the “AUC0-∞” value [6, 16] was 35.28 ng·h/mL and the Cmax [6, 16] was 4.99 ng/mL. The “AUC0-t, geometric mean” value [6, 28] was 27.79308 ng·h/mL, the “AUC∞, geometric mean” value [6, 28] was 33.77136 ng·h/mL and the “Cmax, geometric mean” value [6, 28] was 4.83539 ng/mL.
In the case of `COc1cc2c(c(OC)c1O)-c1ccc(OC)c(=O)cc1[C@@H](NC(C)=O)CC2` [2-DMC, 2-O-demethylcolchicine], the metabolite plasma concentration [4] is reported as < 0.2 ng/mL.
In the case of `COc1cc2c(c(OC)c1OC)-c1ccc(OC)c(=O)cc1[C@@H](NC(C)=O)CC2` [Colchicine + Azithromycin], the AUC0-t [7, 20] is reported as 17.16 ng·h/mL, the Cmax [7, 20] is reported as 3.05 ng/mL and the “AUC0-t, geometric mean” value [7, 21] is reported as 16.09052 ng·h/mL. The “AUC∞, geometric mean” value [7, 21] was 18.31283 ng·h/mL, the “Cmax, geometric mean” value [7, 21] was 2.85622 ng/mL and the CL/F [7, 22] was 35.01 L/h. It also gave a t1/2 [7, 22] of 6.71 h.
With `COc1cc2c(c(OC)c1OC)-c1ccc(OC)c(=O)cc1[C@@H](NC(C)=O)CC2` [Colchicine + Verapamil] the AUC0-t [12, 24] was 24.64 ng·h/mL, the “AUC0-∞” value [12, 24] was 30.59 ng·h/mL and the Cmax [12, 24] was 3.85 ng/mL. The “AUC0-t, geometric mean” value [12, 25] was 23.88921 ng·h/mL, the “AUC∞, geometric mean” value [12, 25] was 29.55675 ng·h/mL and the “Cmax, geometric mean” value [12, 25] was 3.63968 ng/mL. For the same molecule, the Tmax ([12]; colchicine in plasma, single 0.6 mg dose alone or with steady-state verapamil, N=24, head says median for Tmax) was 1.15 h.
